Source: patent US8415351B2 (priority 2007, dated 2013)

Key:
[1] = system: genotype 1a-H77 subgenomic replicon cell line; experiment: microbe, parasite or virus in culture; assay type: cell-based, HCV; settings: Hepatitis C virus, read-out: EC50 1a
[2] = system: genotype 1b-Con1 subgenomic replicon cell line; experiment: microbe, parasite or virus in culture; assay type: cell-based, HCV; settings: Hepatitis C virus, read-out: EC50 1b

Row | SMILES | EC50 [1] [µM] | EC50 [2] [µM]
1 | COc1c(CCc2ccc(NS(C)(=O)=O)cc2)cc(N2CCC(=O)NC2=O)cc1C(C)(C)C [IA-L5-2-1.1, N-(4-(3-tert-butyl-5-(2,4-dioxotetrahydropyrimidin-1(2H)-yl)-2-methoxyphenethyl)phenyl)methanesulfonamide] | 0.1 to 1 | 0.01 to 0.1
2 | CC(C)(C)c1cc(CCc2ccc(NS(C)(=O)=O)cc2)cc(N2CCC(=O)NC2=O)c1 [IA-L5-2-1.2, N-(4-(3-tert-butyl-5-(2,4-dioxotetrahydropyrimidin-1(2H)-yl)phenethyl)phenyl)methane sulfonamide] | 0.1 to 1 | 0.1 to 1
3 | COc1c(C2CC2c2ccc(NS(C)(=O)=O)cc2)cc(N2CCC(=O)NC2=O)cc1C(C)(C)C (centres unmarked) [IA-L8-1.1, N-(4-(2-(3-tert-butyl-5-(2,4-dioxotetrahydropyrimidin-1(2H)-yl)-2-methoxyphenyl)cyclopropyl)phenyl)methanesulfonamide] | 0.1 to 1 | 0.1 to 1
4 | COc1c(-c2ccc3ccccc3c2)cc(-n2ccc(=O)[nH]c2=O)cc1C(C)(C)C [IB-L0-2.1, 1-(3-tert-butyl-4-methoxy-5-(naphthalen-2-yl)phenyl)pyrimidine-2,4(1H,3H)-dione] | > 1 | 0.1 to 1
5 | COc1ccc2cc(-c3cc(-n4ccc(=O)[nH]c4=O)cc(C(C)(C)C)c3OC)ccc2c1 [IB-L0-2.2, 1-(3-tert-butyl-4-methoxy-5-(6-methoxynaphthalen-2-yl)phenyl)pyrimidine-2,4(1H,3H)-dione] | > 1 | > 1
6 | COc1c(-c2ccc3cc(NS(C)(=O)=O)ccc3c2)cc(-n2ccc(=O)[nH]c2=O)cc1C(C)(C)C [IB-L0-2.3, N-(6-(3-tert-butyl-5-(2,4-dioxo-3,4-dihydropyrimidin-1(2H)-yl)-2-methoxyphenyl)naphthalen-2-yl)methanesulfonamide] | < 0.01 | < 0.01
7 | COc1c(-c2ccc3nc(NS(C)(=O)=O)ccc3c2)cc(-n2ccc(=O)[nH]c2=O)cc1C(C)(C)C [IB-L0-2.5, N-(6-(3-tert-butyl-5-(2,4-dioxo-3,4-dihydropyrimidin-1(2H)-yl)-2-methoxyphenyl)quinolin-2-yl)methanesulfonamide] | 0.01 to 0.1 | < 0.01
8 | COc1c(-c2nc3cc(NS(C)(=O)=O)ccc3o2)cc(-n2ccc(=O)[nH]c2=O)cc1C(C)(C)C [IB-L0-2.6, N-(2-(3-tert-butyl-5-(2,4-dioxo-3,4-dihydropyrimidin-1(2H)-yl)-2-methoxyphenyl)benzo[d]oxazol-5-yl)methanesulfonamide] | 0.1 to 1 | 0.01 to 0.1
9 | COc1c(-c2ccc3c(c2)CC[C@]3(F)CNS(C)(=O)=O)cc(-n2ccc(=O)[nH]c2=O)cc1C(C)(C)C [IB-L0-2.10, (R)—N-((5-(3-tert-butyl-5-(2,4-dioxo-3,4-dihydropyrimidin-1(2H)-yl)-2-methoxyphenyl)-1-fluoro-2,3-dihydro-1H-inden-1-yl)methyl)methanesulfonamide] | < 0.01 | < 0.01
10 | COc1c(-c2ccc3c(c2)CC=C3CN(C)S(C)(=O)=O)cc(-n2ccc(=O)[nH]c2=O)cc1C(C)(C)C [IB-L0-2.16, N-((6-(3-tert-butyl-5-(2,4-dioxo-3,4-dihydropyrimidin-1(2H)-yl)-2-methoxyphenyl)-1H-inden-3-yl)methyl)-N-methylmethanesulfonamide] | 0.1 to 1 | < 0.01
11 | COc1c(N2CCc3cc(NS(C)(=O)=O)ccc3C2)cc(-n2ccc(=O)[nH]c2=O)cc1C(C)(C)C [IB-L0-2.19, N-(2-(3-tert-butyl-5-(2,4-dioxo-3,4-dihydropyrimidin-1(2H)-yl)-2-methoxyphenyl)-1,2,3,4-tetrahydroisoquinolin-6-yl)methanesulfonamide] | 0.01 to 0.1 | 0.01 to 0.1
12 | COc1c(-c2ccc3c(c2)CC[C@@]3(F)CNS(C)(=O)=O)cc(-n2ccc(=O)[nH]c2=O)cc1C(C)(C)C [IB-L0-2.20, (S)—N-((5-(3-tert-butyl-5-(2,4-dioxo-3,4-dihydropyrimidin-1(2H)-yl)-2-methoxyphenyl)-1-fluoro-2,3-dihydro-1H-inden-1-yl)methyl)methanesulfonamide] | 0.1 to 1 | 0.01 to 0.1
13 | COc1c(-c2ccc3nc(NS(C)(=O)=O)cnc3c2)cc(-n2ccc(=O)[nH]c2=O)cc1C(C)(C)C [IB-L0-2.26, N-(6-(3-tert-butyl-5-(2,4-dioxo-3,4-dihydropyrimidin-1(2H)-yl)-2-methoxyphenyl)quinoxalin-2-yl)methanesulfonamide] | > 1 | 0.1 to 1
14 | COc1c(-c2ccc3nc(N)sc3c2)cc(-n2ccc(=O)[nH]c2=O)cc1C(C)(C)C [IB-L0-2.27, 1-(3-(2-aminobenzo[d]thiazol-6-yl)-5-tert-butyl-4-methoxy-phenyl)pyrimidine-2,4(1H,3H)-dione] | 0.1 to 1 | 0.01 to 0.1
15 | COc1c(-c2ccc3nc(NS(C)(=O)=O)sc3c2)cc(-n2ccc(=O)[nH]c2=O)cc1C(C)(C)C [IB-L0-2.28, N-(6-(3-tert-butyl-5-(2,4-dioxo-3,4-dihydropyrimidin-1(2H)-yl)-2-methoxyphenyl)benzo[d]thiazol-2-yl)methanesulfonamide] | > 1 | 0.1 to 1
16 | COc1c(-c2ccc3c(c2)CNC3=O)cc(-n2ccc(=O)[nH]c2=O)cc1C(C)(C)C [IB-L0-2.30, 1-(3-tert-butyl-4-methoxy-5-(1-oxoisoindolin-5-yl)phenyl)-pyrimidine-2,4(1H,3H)-dione] | 0.1 to 1 | 0.01 to 0.1
17 | COc1c(-c2ccc3c(c2)CCN3S(C)(=O)=O)cc(-n2ccc(=O)[nH]c2=O)cc1C(C)(C)C [IB-L0-2.32, 1-(3-tert-butyl-4-methoxy-5-(1-(methylsulfonyl)indolin-5-yl)phenyl)pyrimidine-2,4(1H,3H)-dione] | 0.1 to 1 | 0.01 to 0.1
18 | COc1c(-c2ccc3ncsc3c2)cc(-n2ccc(=O)[nH]c2=O)cc1C(C)(C)C [IB-L0-2.33, 1-(3-(benzo[d]thiazol-6-yl)-5-tert-butyl-4-methoxyphenyl)pyrimidine-2,4(1H,3H)-dione] | 0.1 to 1 | 0.1 to 1
19 | COc1c(-c2ccc3nc(Cl)sc3c2)cc(-n2ccc(=O)[nH]c2=O)cc1C(C)(C)C [IB-L0-2.38, 1-(3-tert-butyl-5-(2-chlorobenzo[d]thiazol-6-yl)-4-methoxyphenyl)pyrimidine-2,4(1H,3H)-dione] | > 1 | > 1
20 | COc1c(-c2ccc3c(c2)CC=C3C(C)(C)NS(C)(=O)=O)cc(-n2ccc(=O)[nH]c2=O)cc1C(C)(C)C [IB-L0-2.41, N-(2-(6-(3-tert-butyl-5-(2,4-dioxo-3,4-dihydropyrimidin-1(2H)-yl)-2-methoxyphenyl)-1H-inden-3-yl)propan-2-yl)methanesulfonamide] | 0.1 to 1 | 0.1 to 1
21 | COc1c(-c2ccc3c(C)coc3c2)cc(-n2ccc(=O)[nH]c2=O)cc1C(C)(C)C [IB-L0-2.42, 1-(3-tert-butyl-4-methoxy-5-(3-methylbenzofuran-6-yl)phenyl)-pyrimidine-2,4(1H,3H)-dione] | 0.1 to 1 | 0.1 to 1
22 | COc1c(-c2ccc3c(c2)CCN(NS(C)(=O)=O)C3)cc(-n2ccc(=O)[nH]c2=O)cc1C(C)(C)C [IB-L0-2.43, N-(6-(3-tert-butyl-5-(2,4-dioxo-3,4-dihydropyrimidin-1(2H)-yl)-2-methoxyphenyl)-3,4-dihydroisoquinolin-2(1B)-yl)methanesulfonamide] | > 1 | 0.1 to 1
